This is an account of results in patent publication US5596002A, “Method of treating chloroquine-resistant malaria with aminoquinoline derivatives” (Hoffmann-La Roche Inc., priority 1993, dated 1997).

Converted amounts (≈) assume the structure as drawn. Where two headings read alike, the source gives them in different places.

Experiment [1] concerns Plasmodium falciparum, chloroquine-sensitive strain Ro7 3. Nature of the experiment: activity against P. falciparum in vitro, strain Ro7 3. It counts as cell-based. As to conditions: chloroquine-sensitive strain Ro7 3, 48 h-72 h, read-out: IC50 (50% growth inhibition). In short, it runs like this: (§1)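 IC50 values come from logit regression of radiolabelled hypoxanthine incorporation after 48 h-72 h drug exposure of asynchronous P. falciparum in human A+ red cells (0.7% parasitemia).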

The test system of experiment [2] is Plasmodium falciparum, chloroquine-sensitive strain FCH5C2. Nature of the experiment: activity against P. falciparum in vitro, strain FCH5C2. The format is cell-based. The note with it: chloroquine-sensitive strain FCH5C2, 48 h-72 h, read-out: IC50 (50% growth inhibition). A digest of the protocol: as §1
The test system of experiment [3] is Plasmodium falciparum, chloroquine-resistant strain W2. Briefly: activity against P. falciparum in vitro, strain W2. The note with it: chloroquine-resistant strain W2, 48 h-72 h, read-out: IC50 (50% growth inhibition). It counts as cell-based. A digest of the protocol: as §1
The subject of experiment [4] is Plasmodium falciparum, chloroquine-sensitive strain RFMEF3. Nature of the experiment: activity against P. falciparum in vitro, strain RFMEF3. The format is cell-based. As to conditions: chloroquine-sensitive strain RFMEF3, 48 h-72 h, read-out: IC50 (50% growth inhibition). In short, it runs like this:
as §1

Experiment [5] relates to Plasmodium falciparum, chloroquine-sensitive strain NF54. Briefly: activity against P. falciparum in vitro, strain NF54. The format is cell-based. As to conditions: Plasmodium falciparum; chloroquine-sensitive strain NF54; 48 h-72 h; read-out: IC50 (50% growth inhibition). A digest of the protocol:
as §1

The subject of experiment [6] is Plasmodium falciparum, chloroquine-resistant strain RFCR3. Briefly: activity against P. falciparum in vitro, strain RFCR3. The format is cell-based. As to conditions: chloroquine-resistant strain RFCR3, 48 h-72 h, read-out: IC50 (50% growth inhibition). A digest of the protocol:
as §1

For experiment [7], the system named is Plasmodium falciparum, chloroquine-sensitive strain HB3. Nature of the experiment: activity against P. falciparum in vitro, strain HB3. It counts as cell-based. As to conditions: chloroquine-sensitive strain HB3, 48 h-72 h, read-out: IC50 (50% growth inhibition). A digest of the protocol:
as §1

For experiment [8], the system named is Plasmodium falciparum, chloroquine-resistant strain 7G8. Briefly: activity against P. falciparum in vitro, strain 7G8. The format is cell-based. As to conditions: chloroquine-resistant strain 7G8, 48 h-72 h, read-out: IC50 (50% growth inhibition). In short, it runs like this:
as §1

For experiment [9], the system named is Plasmodium falciparum, chloroquine-resistant strain Indo. Nature of the experiment: activity against P. falciparum in vitro, strain Indo. The format is cell-based. As to conditions: chloroquine-resistant strain Indo, 48 h-72 h, read-out: IC50 (50% growth inhibition). In short, it runs like this: as §1
For experiment [10], the system named is Plasmodium falciparum, chloroquine-resistant strain ItG2 F6. Nature of the experiment: activity against P. falciparum in vitro, strain ItG2 F6. It counts as cell-based. The note with it: chloroquine-resistant strain ItG2 F6, 48 h-72 h, read-out: IC50 (50% growth inhibition). A digest of the protocol: as §1
In experiment [11] the test system is Plasmodium falciparum, chloroquine-resistant strain K1. Briefly: activity against P. falciparum in vitro, strain K1. It counts as cell-based. The note with it: Plasmodium falciparum; chloroquine-resistant strain K1; 48 h-72 h; read-out: IC50 (50% growth inhibition). A digest of the protocol:
as §1

Experiment [12] has as its system Plasmodium berghei (strain ANKA). Nature of the experiment: activity against Plasmodium berghei in vivo (infected mice). The note with it: mice; for ED50: single administration po, dose reducing average erythrocyte infection rate by 50%, read-out: ED50 (po); for inhibition in vivo at 10 mg/kg: 48 hours after treatment (D+3). In short, it runs like this:
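Male albino mice (~25 g, n=5) infected i.v. with P. berghei ANKA-parasitized erythrocytes, dosed once s.c. or p.o. 24 h post-infection, first at 10 mg/kg. Giemsa tail-blood smears 48 h post-treatment (D+3); GI % is parasitemia reduction versus vehicle controls; ED50/ED90 in mg/kg by nonlinear fit.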

For experiment [13], the system named is Plasmodium falciparum, chloroquine-resistant strain W2 Mef. Nature of the experiment: activity against P. falciparum in vitro, strain W2 Mef. The note with it: 48 h-72 h, read-out: IC50 (50% growth inhibition). The format is cell-based. A digest of the protocol: as §1
The mark [14] stands for this setting: single dose 10 mg/kg po, read-out: GI % at 10 mg/kg (po): percentage reduction in the parasitemia.
[15] abbreviates: single dose 10 mg/kg sc, read-out: GI % at 10 mg/kg (sc): percentage reduction in the parasitemia.

Consider `Clc1ccc2c(NC3CCN(Cc4ccccc4)CC3)ccnc2c1` [Example 19, (1-Benzyl-piperidin-4-yl)-(7-chloro-quinolin-4-yl)-amine], for which the IC50 (in general, the concentration at which inhibition is half-maximal) was 0.003 µg/mL (≈ 0.00853 µM) in experiment [1]; 0.005 µg/mL (≈ 0.0142 µM) in [2]; 0.01 µg/mL (≈ 0.0284 µM) in experiment [3]; 0.005 µg/mL (≈ 0.0142 µM) in experiment [4]; 0.007 µg/mL (≈ 0.0199 µM) in [5]; 0.01 µg/mL (≈ 0.0284 µM) in [6]. Also, the IC50 in experiment [7] amounted to 0.004 µg/mL (≈ 0.0114 µM); in experiment [8], 0.007 µg/mL (≈ 0.0199 µM); in experiment [9] it was 0.007 µg/mL (≈ 0.0199 µM); in experiment [10], 0.006 µg/mL (≈ 0.0171 µM); in [11] it was 0.009 µg/mL (≈ 0.0256 µM); in [13], 0.011 µg/mL (≈ 0.0313 µM). Also, the ED50 (as a rule, the midpoint of the dose-response relation) in experiment [12] worked out at 5.3 mg/kg. Further, the inhibition in vivo at 10 mg/kg in [12] (setting [14]) was determined as 99%; in experiment [12] (setting [15]), 99.6%.
Take `CC1CC(C)(C)C(CNc2ccnc3cc(Cl)ccc23)C1N` (centres unmarked) [Example 20, (5-Amino-2,2,4-trimethyl-cyclopentylmethyl)-(7-chloro-quinolin-4yl)-amine]: the IC50 came out at 0.007 µg/mL (≈ 0.022 µM) in [1]; 0.007 µg/mL (≈ 0.022 µM) in experiment [2]; 0.011 µg/mL (≈ 0.0346 µM) in experiment [3]; 0.004 µg/mL (≈ 0.0126 µM) in experiment [4]; 0.003 µg/mL (≈ 0.00944 µM) in [5]; 0.014 µg/mL (≈ 0.044 µM) in experiment [6]. The IC50 stood at 0.004 µg/mL (≈ 0.0126 µM) in experiment [7]; 0.015 µg/mL (≈ 0.0472 µM) in experiment [8]; 0.008 µg/mL (≈ 0.0252 µM) in experiment [9]; 0.007 µg/mL (≈ 0.022 µM) in experiment [10]; 0.01 µg/mL (≈ 0.0315 µM) in experiment [11]; 0.014 µg/mL (≈ 0.044 µM) in experiment [13]. In addition, the ED50 in [12] is 4.4 mg/kg. The inhibition in vivo at 10 mg/kg in experiment [12] (setting [14]) and in experiment [12] (setting [15]) was 99.9% throughout.
On to `C=CCN(C)CCNc1ccnc2cc(Cl)ccc12` [Example 33, N1 -Allyl-N2-(7-chloro-quinolin-4-yl)-N1-methyl-ethane-1,2-diamine], for which the IC50 was 0.01 µg/mL (≈ 0.0363 µM) in experiment [1]; 0.015 µg/mL (≈ 0.0544 µM) in experiment [2]; 0.021 µg/mL (≈ 0.0761 µM) in experiment [3]; 0.016 µg/mL (≈ 0.058 µM) in experiment [4]; 0.008 µg/mL (≈ 0.029 µM) in [5]; 0.018 µg/mL (≈ 0.0653 µM) in experiment [6]. Besides, the IC50 in [7] was determined as 0.015 µg/mL (≈ 0.0544 µM); in [8], 0.018 µg/mL (≈ 0.0653 µM); in experiment [9], 0.014 µg/mL (≈ 0.0508 µM); in [10] it was 0.009 µg/mL (≈ 0.0326 µM); in experiment [11], 0.014 µg/mL (≈ 0.0508 µM); in [13], 0.015 µg/mL (≈ 0.0544 µM). The ED50 in experiment [12] worked out at 5.9 mg/kg. Further, the inhibition in vivo at 10 mg/kg in [12] (setting [14]) and in [12] (setting [15]) was 97% each time.
For `CN(C)C(C)(C)CNc1ccnc2cc(Cl)ccc12` [Example 33b, N1-(7-Chloro-quinolin-4-yl)-2,N2,N2-trimethyl-propane-1,2-diamine], the IC50 in experiment [1] turned out to be 0.004 µg/mL (≈ 0.0144 µM); in experiment [2], 0.011 µg/mL (≈ 0.0396 µM); in experiment [3] it was 0.009 µg/mL (≈ 0.0324 µM); in [4], 0.008 µg/mL (≈ 0.0288 µM); in [5], 0.008 µg/mL (≈ 0.0288 µM); in experiment [6], 0.01 µg/mL (≈ 0.036 µM). Further, the IC50 came to 0.012 µg/mL (≈ 0.0432 µM) in [7]; 0.018 µg/mL (≈ 0.0648 µM) in experiment [8]; 0.009 µg/mL (≈ 0.0324 µM) in experiment [9]; 0.017 µg/mL (≈ 0.0612 µM) in experiment [10]; 0.017 µg/mL (≈ 0.0612 µM) in experiment [11]; 0.018 µg/mL (≈ 0.0648 µM) in [13]. Moreover, the inhibition in vivo at 10 mg/kg in experiment [12] (setting [14]) and in [12] (setting [15]) was 99.9% each time.
